The values below come from patent US11369569B2, “Target-specific delivery of therapeutic agents” (University of Virginia Patent Foundation, priority 2015, dated 2022).

Read-outs that look alike come from different tables or passages of the source.

Experiment [1] has as its system cell types of interest in the infarct/border zone. In words: Immunofluorescence co-localization of peptide-conjugated liposomes with cell markers (JACoP, Mander's overlap). It is filed as in vivo, mice. The conditions noted are these: post-MI hearts.
Experiment [2] has the same test system. In words: Immunofluorescence of heart sections to identify cell types bound by phage clones. It is filed as in vivo, mice. To be noted: immunostaining. The procedure:
Following ex vivo imaging of heart and liver, hearts from the mice under study were fixed in 4% paraformaldehyde for 1 h followed by equilibration in 30% sucrose for overnight at 4° C. The hearts were washed 3-4 times in DPBS (Dulbecco's phosphate-buffered saline) and placed in OCT medium (Sakura Finetek USA, Inc, Torrance, Calif.) and frozen by placing over liquid N2 vapors. The embedded tissue samples cut into 5-7 μm sections using a cryostat (Leica Microsystems Inc, Buffalo Grove, Ill.), for subsequent imaging with a fluorescence microscope fitted with appropriate filter sets (Olympus BX41). Cell types of interest in the infarct/border zone were identified by immunohistochemistry using the following antibodies: rat anti-mouse CD 31 at 1:250 dilution (endothelial marker)(BD Biosciences, San Jose, Calif.), rat anti-mouse myoglobin at 1:200 (cardiomyocyte marker) (Santa Cruz Biotechnology Inc, Dallas, Tex.), anti-alpha-smooth muscle actin (aSMA) conjugated with Alexa Fluor 488 at 1:200 (myofibroblast marker) (Sigma Chemical Co., St. Louis, Mo.), and rabbit anti-mouse c-Kit at 1:150 (cardiac progenitor cell marker) (Santa Cruz Biotechnology Inc, Dallas, Tex.). […] Appropriate secondary antibodies were employed as needed to identify the primary antibodies:goat anti-rat Alexa Fluor 488 (1:250) and goat anti-rabbit Alexa Fluor 488 (1:250) (Abcam, Cambridge, Mass.). Binding of I-1 and B-50 phage clones to cardiomyocytes and c-Kit+ cells was determined by flow cytometry. The RL-14 cardiomyocyte cell line (ATCC) was used to test the binding of fluorescently labeled I-1 phage (VivoTag 645) and myocardial infarct derived cardiac and bone marrow cells to test the binding of fluorescently labeled B-50 phage (VivoTag 680).

The next experiment has as its target T1, CRIP-2 (Mus musculus, UniProt Q9DCT8).
T1 construct: host or cells: myocardium and endothelium of the heart
T1 sequence (Q9DCT8 1-208): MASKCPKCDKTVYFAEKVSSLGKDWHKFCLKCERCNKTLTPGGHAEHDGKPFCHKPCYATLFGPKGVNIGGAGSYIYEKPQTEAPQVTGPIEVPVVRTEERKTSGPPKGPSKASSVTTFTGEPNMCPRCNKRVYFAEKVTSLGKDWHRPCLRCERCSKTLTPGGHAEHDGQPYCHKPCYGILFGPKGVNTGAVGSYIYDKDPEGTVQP
Also noted: reference not given here. The conditions noted are these: via binding to CRIP-2 in myocardium and endothelium; cited from earlier work.

Another experiment concerns the target T2, VEGFR2 (Mus musculus, UniProt P35918).
T2 construct: from tissue; host or cells: endothelium of infarct/border zone in mouse heart (in vivo)
The format is in vivo. To be noted: for Vessel volume fraction (VVF) in infarct region: day 7 post-MI.

Another experiment has as its target T3, EF fragment of Hornerin (Homo sapiens, UniProt Q86YZ3).
T3 construct: Different versions of the hornerin fragments containing EF domains were created; made in house
T3 sequence (Q86YZ3 1-81 limits assumed): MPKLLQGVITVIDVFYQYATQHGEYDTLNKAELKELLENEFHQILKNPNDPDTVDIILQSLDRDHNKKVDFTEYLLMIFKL
In words: Biolayer interferometry of B-40 binding to hornerin EF fragments. To be noted: biotinylated B-40 peptide on streptavidin sensors. Here is the method: FIG. 31 depicts biolayer interferometry to determine B-40 liposome binding to EF fragment of Hornerin. Using Fortebio octect system, B-40 liposomes binding to EF fragment was carried out. Streptavidin sensors were coated with Biotinylated EF fragments and their interaction with no peptide, I-1 and B-40 liposomes was tested.
FIG. 33 depicts biolayer interferometry to determine B-40 liposome binding to EF domains. Using Fortebio octect system, B-40 peptide binding to different EF fragments was carried out. Streptavidin sensors were coated with biotinylated B-40 peptide and its interaction with different fragments containing EF domains was carried out.

T2 sequence (P35918 20-1345): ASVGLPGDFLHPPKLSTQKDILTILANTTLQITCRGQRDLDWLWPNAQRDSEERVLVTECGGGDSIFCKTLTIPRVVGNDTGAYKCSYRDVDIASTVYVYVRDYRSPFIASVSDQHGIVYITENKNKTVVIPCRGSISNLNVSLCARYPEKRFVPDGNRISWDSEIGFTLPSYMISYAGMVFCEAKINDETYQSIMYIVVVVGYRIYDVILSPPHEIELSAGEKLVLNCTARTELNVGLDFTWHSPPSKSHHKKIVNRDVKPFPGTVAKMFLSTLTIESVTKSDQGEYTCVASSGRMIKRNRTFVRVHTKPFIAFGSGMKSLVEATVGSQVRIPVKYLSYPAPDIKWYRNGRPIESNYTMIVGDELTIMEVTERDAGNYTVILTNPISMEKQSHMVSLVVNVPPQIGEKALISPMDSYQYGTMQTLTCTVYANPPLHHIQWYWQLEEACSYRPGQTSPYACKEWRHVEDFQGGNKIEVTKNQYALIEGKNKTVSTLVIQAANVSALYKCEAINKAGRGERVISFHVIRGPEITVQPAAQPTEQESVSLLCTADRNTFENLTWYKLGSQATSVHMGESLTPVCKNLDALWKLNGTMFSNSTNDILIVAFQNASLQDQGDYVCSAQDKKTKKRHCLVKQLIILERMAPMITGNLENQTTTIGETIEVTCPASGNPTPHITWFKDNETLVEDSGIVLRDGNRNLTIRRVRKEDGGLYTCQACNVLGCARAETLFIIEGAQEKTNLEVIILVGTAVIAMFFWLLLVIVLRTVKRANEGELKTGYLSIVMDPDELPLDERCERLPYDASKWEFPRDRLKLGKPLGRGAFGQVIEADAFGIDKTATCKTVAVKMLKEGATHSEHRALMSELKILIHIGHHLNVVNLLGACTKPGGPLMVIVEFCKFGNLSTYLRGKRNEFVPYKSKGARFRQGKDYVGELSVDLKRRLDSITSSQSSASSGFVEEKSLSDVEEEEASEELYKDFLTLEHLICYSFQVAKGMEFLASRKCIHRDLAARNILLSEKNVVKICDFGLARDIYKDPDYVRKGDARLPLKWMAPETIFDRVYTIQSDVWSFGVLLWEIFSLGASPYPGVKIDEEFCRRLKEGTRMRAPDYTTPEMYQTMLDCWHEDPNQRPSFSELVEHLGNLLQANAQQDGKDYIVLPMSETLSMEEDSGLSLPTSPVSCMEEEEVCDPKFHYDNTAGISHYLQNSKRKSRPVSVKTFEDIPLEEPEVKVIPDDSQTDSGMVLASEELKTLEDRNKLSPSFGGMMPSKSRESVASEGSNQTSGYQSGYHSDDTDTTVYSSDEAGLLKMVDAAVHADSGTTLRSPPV

As to “NCP: intentionally off-target peptide (Panc-27) previously shown to be specific for pancreatic cancer cells (KTLLPTP) [reference compound]”, the “Cell type for which peptide conjugated liposomes are specific” value in experiment [1] is on record as “non-specifically taken up by macrophages”. Turning to SDTWSSR (listed as Homo sapiens) [B-7], the “Cell type / component for which phage clone is specific” value (“Cell type / component” for short) in experiment [2] was “myofibroblasts”. As for AMRPPLN (listed as Homo sapiens) [B-42], the “Cell type / component” value in experiment [2] was “cardiomyocytes”. The same measure, in the same setting: the value for TMQHDG (listed as Homo sapiens) [B-11] was “extracellular matrix”. Turning to RPPALAP (listed as Homo sapiens) [B-29], the “Cell type for which peptide conjugated liposomes are specific” value in experiment [1] is on record as “myofibroblasts”. The “Cell type / component” value in experiment [2] is “myofibroblasts”.

On to CRPPR [CRPPR-peptide], for which, on CRIP-2, the “Targeting to the heart” value is on record as 47 fold.

On to ESRQVTP (listed as Homo sapiens) [B-43], for which the “Cell type / component” value in experiment [2] is reported as “extracellular matrix”.

As to GLSQLQR (listed as Homo sapiens) [B-50], the “Cell type for which peptide conjugated liposomes are specific” value in experiment [1] is reported as “c-Kit+ cells”. Also, the “Cell type / component” value in experiment [2] is given as “c-Kit+ cells”.

As for `Clc1ccc(Nc2nnc(Cc3ccncc3)c3ccccc23)cc1` [PTK787], the “Percent effective in reducing neovessel formation” value was 18% at VEGFR2 (20 mg/kg-d) and 65% at VEGFR2 (100 mg/kg-d). Also, the “Vessel volume fraction (VVF) in infarct region” value came to 0.052 on VEGFR2 (20 mg/kg-d); 0.021 on VEGFR2 (100 mg/kg-d); 0.022 on VEGFR2 (100 mg/kg-d, listed as free PTK787). For the same compound, on VEGFR2 (1000 nonparametric bootstrap data sets), the “Median (ED50, bootstrap)” value was 63 mg/kg-d. In addition, the “Estimated (ED50)” value on VEGFR2 (Imax model fit from vessel volume fraction) is 63 mg/kg-d.

Turning to TALPRLN (listed as Homo sapiens) [I-1], the “Cell type for which peptide conjugated liposomes are specific” value in experiment [1] is listed as “cardiomyocytes”. Further, the “Cell type / component” value in experiment [2] was “cardiomyocytes”.

SHSNARS (listed as Homo sapiens) [B-27]: in experiment [2], the “Cell type / component” value is given as “c-Kit+ cells”. In the case of SLLNRMP (listed as Homo sapiens) [B-40], the “Binding to fragments containing EF domains” value in the experiment with EF fragment of Hornerin is listed as “possible binding partner”. Also, the “Cell type for which peptide conjugated liposomes are specific” value in experiment [1] is recorded as “endothelial cells”. The “Cell type / component” value in experiment [2] is “endothelial cells”. Take ATMSRAP (listed as Homo sapiens) [B-47]: the “Cell type / component” value in experiment [2] is on record as “endothelial cells”.
